The values below come from PMC9499365, “Stereoselective Synthesis and Application of Gibberellic Acid-Derived Aminodiols” (International Journal of Molecular Sciences, 2022).

Assay [1] deals with panel of human cancer cell lines. The assay is described as follows: MTT antiproliferative assay, panel of human cancer cell lines (summary statements). The settings on record: range over the cancer cell lines, read-out: calculated IC50 value on the malignant cell lines. It is filed as cell-based. The protocol: (§1) The in vitro antiproliferative activities of the synthesized aminodiols 4–38 against a panel of different human cancer cell lines of gynecological origin, including cervical (SiHA and HeLa), breast (MCF7 and MDA-MB-231), and ovary (A2780) cancers were assayed by the MTT method. […] Cisplatin, a clinically applied anticancer agent, was used as a reference compound and the results are summarized in Figure 3 and Table S1 in Supporting Information. […] On the other hand, none of the prepared azole derivatives exerted relevant activity.
The growth-inhibitory effects of the gibberellic acid-based aminodiol derivatives were determined by a standard MTT (3-(4,5-dimethylthiazol-2-yl)-2,5-diphenyltetrazolium bromide) assay on a panel containing five cell lines, including Hela and Siha (cervical cancers); MDA-MB-231 and MCF-7 (breast cancers); and A2780 ovarian cancer cells. The most promising agents were additionally tested against NIH/3T3 mouse embryo fibroblast cells. All cell lines were purchased from the European Collection of Cell Cultures (Salisbury, UK) except SiHa, which was obtained from the American Tissue Culture Collection (Manassas, VA, USA). […] As the final step, the absorbance was measured at 545 nm by using a microplate reader (SPECTROStar Nano, BMG Labtech, Offenburg, Germany). […]

A short description of assay [2]: DPPH free radical scavenging assay. The settings on record: concentration range 3–100 µM. For orientation: The DPPH test is a chemical assay of radical scavenging.
Description: As a consequence, in vitro antioxidant activities of selected N-aliphatic- and N-aryl-substituted aminodiols were determined by 1,1-diphenyl-2-picrylhydrazyl (DPPH) assay.
The antioxidant effects of the aminodiol derivatives were tested on 1,1-diphenyl-2-picrylhydrazyl (DPPH) radicals according to Brand-Williams (1995) [55] and Sánchez-Moreno (2002) [56], with some modifications. […] After a 30 min incubation period at room temperature (25 °C) the absorbances were measured at 517 nm by a microplate reader (SPECTROStar Nano, BMG Labtech, Offenburg, Germany). Trolox (3,4-Dihydro-6-hydroxy-2,5,7,8-tetramethyl-2H-1-benzopyran-2-carboxylic acid) was used as a positive control. All measurements were performed in duplicate with 5 parallels.
For assay [3], the system named is NIH/3T3 mouse embryo fibroblast cells. The assay is described as follows: MTT assay on non-cancerous fibroblasts (cancer selectivity). In kind it is cell-based. The procedure: as §1
The growth-inhibitory effects of the gibberellic acid-based aminodiol derivatives were determined by a standard MTT (3-(4,5-dimethylthiazol-2-yl)-2,5-diphenyltetrazolium bromide) assay on a panel containing five cell lines, including Hela and Siha (cervical cancers); MDA-MB-231 and MCF-7 (breast cancers); and A2780 ovarian cancer cells. The most promising agents were additionally tested against NIH/3T3 mouse embryo fibroblast cells. All cell lines were purchased from the European Collection of Cell Cultures (Salisbury, UK) except SiHa, which was obtained from the American Tissue Culture Collection (Manassas, VA, USA). The cells were maintained in minimal essential medium supplemented with 10% fetal bovine serum, 1% non-essential amino acids, and 1% penicillin-streptomycin at 37 °C in a humidified atmosphere containing 5% CO2. All media and supplements were obtained from Lonza Group Ltd., (Basel, Switzerland). Cancer cells were seeded into 96-well plates (5000 cells/well), after an overnight incubation the test compound was added in 2 different concentrations (10 µM and 30 µM) and incubated for another 72 h under cell-culturing conditions. Then, 20 μL of 5 mg/mL MTT solution was added to each well and incubated for a further 4 h. The medium was removed, and the precipitated formazan crystals were dissolved in DMSO during 60 min of shaking at 37 °C. As the final step, the absorbance was measured at 545 nm by using a microplate reader (SPECTROStar Nano, BMG Labtech, Offenburg, Germany). Untreated cells were included as controls. […] These agents were additionally tested against NIH/3T3 fibroblasts to obtain results about their cancer selectivity. Two independent experiments were performed with five wells for each condition. Cisplatin (Ebewe GmbH, Unterach, Austria), a clinically used anticancer agent, was used as a positive control. Calculations were performed utilizing the GraphPad Prism 5.01 software (GraphPad Software Inc., San Diego, CA, USA).
(In general: Formazan colour is commonly taken as a measure of viable cells.)

In assay [4] the test system is HeLa cells (cervical cancer). Description: MTT antiproliferative assay, HeLa. In kind it is cell-based, human. The settings on record: Homo sapiens, 72 h. In short, it runs like this:
(§2)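 Cells seeded overnight, then exposed to compound at 10 µM and 30 µM for 72 h at 37 °C, 5% CO2. Growth inhibition read by MTT (4 h), formazan dissolved in DMSO, absorbance at 545 nm versus untreated controls; two independent experiments, five wells each.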

In assay [5] the test system is MDA-MB-231 cells (breast cancer). Description: MTT antiproliferative assay, MDA-MB-231. In kind it is cell-based, human. The conditions noted are these: Homo sapiens. In short, it runs like this: as §2
Assay [6] has as its system A2780 ovarian cancer cells. Description: MTT antiproliferative assay, A2780. In kind it is cell-based, human. The conditions noted are these: Homo sapiens. In short, it runs like this:
as §2

The test system of assay [7] is SiHa cells (cervical cancer). The assay is described as follows: MTT antiproliferative assay, SiHa. In kind it is cell-based, human. The settings on record: Homo sapiens, 72 h. In short, it runs like this:
as §2

Setting [8] is: 10 μM, read-out: Growth inhibition (%) ± SEM.
The mark [9] stands for this setting: 30 μM, read-out: Growth inhibition (%) ± SEM.

Consider `CCOC(=O)[C@H]1c2c(C)cccc2[C@H]2CC[C@]3(O)C[C@@]21C[C@]3(O)CN[C@@H](C)c1cccc2ccccc12` [Compound 13, Ethyl (4bS,7S,8S,9aR,10R)-7,8-dihydroxy-1-methyl-8-((((S)-1-(naphthalen-1-yl)ethyl)amino)methyl)-4b,6,7,8,9,10-hexahydro-5H-7,9a-methanobenzo[a]azulene-10-carboxylate], for which the IC50 is 4.38 to 7.49 µM in assay [1]; 10.9 µM in assay [3] (Mus musculus, NIH3T3, NIH/3T3, 72 h); 4.38 ± 0.08 µM in assay [4]; 7.49 ± 1.26 µM in assay [5] (MDA-MB-231, 72 h); 5.3 ± 0.41 µM in assay [6] (A2780, 72 h); 4.69 ± 0.17 µM in assay [7]. In addition, the “DPPH scavenging activity” value in assay [2] is given as “None of the six molecules elicited considerable activity”. Moreover, the inhibition at 10 µM in assay [3] (Mus musculus, NIH3T3, NIH/3T3, 10 μM, 72 h, read-out: Growth inhibition (%) ± SEM) worked out at 40.5 ± 0.86%; in assay [4] (setting [8]) it was 97.16 ± 0.49%; in assay [5] (MDA-MB-231, 10 μM, 72 h, read-out: Growth inhibition (%) ± SEM) it was 94.86 ± 0.83%; in assay [6] (A2780, 10 μM, 72 h, read-out: Growth inhibition (%) ± SEM), 91.2 ± 1.96%; in assay [7] (setting [8]), 96.05 ± 0.46%. Further, the inhibition at 30 µM in assay [3] (Mus musculus, NIH3T3, NIH/3T3, 30 μM, 72 h, read-out: Growth inhibition (%) ± SEM) turned out to be 88.1 ± 0.16%; in assay [4] (setting [9]), 96.87 ± 0.47%; in assay [5] (MDA-MB-231, 30 μM, 72 h, read-out: Growth inhibition (%) ± SEM) it was 96 ± 0.92%; in assay [6] (A2780, 30 μM, 72 h, read-out: Growth inhibition (%) ± SEM), 96.7 ± 1.17%; in assay [7] (setting [9]), 96.74 ± 0.27%. The “cancer selectivity (cancer cells vs NIH/3T3 fibroblasts), words” value in assay [3] (comparison of IC50 on fibroblasts and malignant cell lines) is on record as “modest cancer selectivity”.

In general, IC50 refers to the midpoint of a concentration-inhibition curve. The term inhibition denotes the percentage by which the read-out fell short of the control.
